Reference: patent US20060229433A1, “Modified antiviral peptides with increased activity and cell membrane affinity” (priority 2003, published 2006)
“And” between values parts separate entries of the source, which are not always exact repeats. Equal entries are not always repeated. Bridge positions count the residues as written; N and C are the ends. Square brackets hold non-standard residues; d marks the D form. Peptide text beside a SMILES is read from it. I, II: the chains in the order shown. Ava = NCCCCC(=O)O

Legend:
[1] = system: HIV-1 89.6 subtype B dualtropic (X4R5); details: PBMC, Table 5
HIV-1 NL 4-3 [2] = experiment: HIV-1 infection of C8166 cells (syncytia formation, p24 ELISA) with HIV-1 NL 4-3; type: cell-based; details: for IC50: C8166 cells, HIV-1 subtype B NL 4-3, Table 3
Experimental: (§1) HIV-1 NL 4-3 isolate (Adachi et al., 1986; Barré-Sinoussi et al., 1983) and highly cytopathic Zairian HIV-1 NDK isolate (Ellrodt et al., 1984) was propagated in permissive CEM cells (Nara et al., 1987). Uninfected CEM and C8166 (Salahuddin et al., 1983) were maintained in RPMI 1640 (R10) with ultraglutamine (cambrex, Vervier, Belgium), penicillin (100 U/ml), streptomycin (100 μg/ml), and 10% heat-inactivated fetal calf serum (Cambrex).
(§2) Samples of 3×10^5/100 μL C8166 cells were preincubated in 96-well microtiter plates in culture medium containing various concentrations of peptide. After a 1 h treatment at 37° C., 100 μl of diluted viral solution of HIV-1 was added. The cells were exposed to the virus for 1 h at 37° C. at a multiplicity of infection of 1000 TCID50 per ml. The cells were washed three times and cultured at 3×10^5/ml of R10 with the treatment in 24-well plates incubated at 37° C. C8166 culture medium was replaced at Day-4 post-infection. The treatment was permanent before virus adsorption, during virus adsorption and after infection. Assays on C8166 cells have been performed at least twice and in duplicate. Toxicity was evaluated by daily cell count and trypan-blue exclusion assay. Infection of C8166 T-cells with HIV-1 was assessed by virus-induced cytopathic effects (syncytia formation) and by quantification of cell free p24 viral protein in the culture supernatants. Measurements of HIV-1 p24^gag concentration in the culture supernatants were achieved by ELISA (ALLIANCE® HIV-1 p24 kit, Perkin Elmer, life sciences, USA).

HIV-1 NL 4-3 [3] = experiment: Infection of human peripheral blood lymphocytes (PBL) with NL 4-3 strain, p24 ELISA; type: cell-based
Experimental: Peripheral blood lymphocytes from an HIV-1 negative donor were grown as described earlier, maintained in RPMI 1640 with ultraglutamine, supplemented with IL2 (20 μg/ml), penicillin (100 U/ml), streptomycin (100 μg/ml), and 10% heat-inactivated fetal calf serum. Cells were stimulated three days in the medium supplemented with phytohemagglutinin (20 U/ml PHA P, DIFCO, Detroit Mich.).
Samples of 10^6/100 μL PBL cells were preincubated in 96-well microtiter plates in culture medium containing various concentrations of peptides. After a 1 h treatment at 37° C., 100 μl of diluted viral solution of HIV-1 was added. The cells were exposed to the virus for 1 h at 37° C. at a multiplicity of infection of 1000 TCID50 per ml. The cells were washed three times and cultured at […] of medium with the treatment in 24-well plates incubated at 37° in culture medium with the peptides in 5% CO2. The treatment was permanent before virus adsorption, during virus adsorption and after infection. The PBL culture medium was replaced every 3-4 days during three weeks always in the presence of peptide. The cell viability was assessed by cell counts and trypan-blue exclusion assay. The viral production in the culture supernatant was quantified by p24 ELISA test, as described earlier. All the experiments have been done in blind-tests. Tests have been done in duplicate.

HIV-1 NL 4-3 [4] = experiment: HIV-1 infection of C8166 cells (syncytia formation, p24 ELISA) with HIV-1 NL 4-3; type: cell-based; parameters: key: ++, +, (+), (+)− and − represent decreasing numbers of syncitia formed.; ++, +, (+), (+)− and − represent decreasing numbers of syncitia formed.; ++, +, (+), (+)− and − represent decreasing numbers of syncitia formed.; ++, +, (+), (+)− and − represent decreasing numbers of syncitia formed.; ++, +, (+), (+)− and − represent decreasing numbers of syncitia formed; details: Table 2
Experimental: as §1, §2

HIV-1 NL 4-3 [5] = experiment: as above; type: cell-based; parameters: key: ++, +, (+), (+)− and − represent decreasing numbers of syncitia formed; ++, +, (+), (+)− and − represent decreasing numbers of syncitia formed; ++, +, (+), (+)− and − represent decreasing numbers of syncitia formed; ++, +, (+), (+)− and − represent decreasing numbers of syncitia formed; ++, +, (+), (+)− and − represent decreasing numbers of syncitia formed; details: Table 1
Experimental: as §1, §2

## CC(C)C[C@H](NC(=O)[C@@H]1CCCN1C(=O)[C@H](CO)NC(=O)[C@H](Cc1ccc(O)cc1)NC(=O)CNC(=O)[C@H](CCC(N)=O)NC(=O)[C@@H](N)CCCNC(=N)N)C(=O)NCCCC[C@H](NC(=O)[C@H](CC(C)C)NC(=O)[C@@H]1CCCN1C(=O)[C@H](CO)NC(=O)[C@H](Cc1ccc(O)cc1)NC(=O)CNC(=O)[C@H](CCC(N)=O)NC(=O)[C@@H](N)CCCNC(=N)N)C(=O)NCCCCC(=O)O [RL dimer valeric acid, (RQGYSPL)2-K—NHCH2CH2CH2CH2COOH] (I: H-RQGYSPLK[Ava]-OH / II: H-RQGYSPL; amide I:8-II:C; N-terminus assumed)
[1]
  IC50: 10 nM
  IC100: 0.5 µM
HIV-1 NL 4-3 [2]
  IC50: 50 nM
HIV-1 NL 4-3 [3]; PBL, NL 4-3 strain, Table 4
  IC50: 5 nM
  IC100: 0.05 µM

## CC(C)C[C@H](NC(=O)[C@@H]1CCCN1C(=O)[C@H](CO)NC(=O)[C@H](Cc1ccc(O)cc1)NC(=O)CNC(=O)[C@H](CCC(N)=O)NC(=O)[C@@H](N)CCCNC(=N)N)C(=O)NCCCCC(=O)O [RL monomer valeric acid, RQGYSPL-NHCH2CH2CH2CH2COOH] (H-RQGYSPL[Ava]-OH)
[1]
  IC50: 10 nM
  IC100: 0.1 µM
HIV-1 NL 4-3 [2]
  IC50: 50 nM
HIV-1 NL 4-3 [3]; PBL, NL 4-3 strain, Table 4
  IC50: 10 nM
  IC100: 1 µM

## CC(C)C[C@H](NC(=O)[C@@H]1CCCN1C(=O)[C@H](CO)NC(=O)[C@H](Cc1ccc(O)cc1)NC(=O)CNC(=O)[C@H](CCC(N)=O)NC(=O)[C@@H](N)CCCNC(=N)N)C(=O)NCCCC[C@H](NC(=O)[C@H](CC(C)C)NC(=O)[C@@H]1CCCN1C(=O)[C@H](CO)NC(=O)[C@H](Cc1ccc(O)cc1)NC(=O)CNC(=O)[C@H](CCC(N)=O)NC(=O)[C@@H](N)CCCNC(=N)N)C(=O)NCCCC[C@H](NC(=O)[C@H](CCCCNC(=O)[C@H](CC(C)C)NC(=O)[C@@H]1CCCN1C(=O)[C@H](CO)NC(=O)[C@H](Cc1ccc(O)cc1)NC(=O)CNC(=O)[C@H](CCC(N)=O)NC(=O)[C@@H](N)CCCNC(=N)N)NC(=O)[C@H](CC(C)C)NC(=O)[C@@H]1CCCN1C(=O)[C@H](CO)NC(=O)[C@H](Cc1ccc(O)cc1)NC(=O)CNC(=O)[C@H](CCC(N)=O)NC(=O)[C@@H](N)CCCNC(=N)N)C(=O)NCCCC[C@H](NC(=O)[C@H](CCCCNC(=O)[C@H](CCCCNC(=O)[C@H](CC(C)C)NC(=O)[C@@H]1CCCN1C(=O)[C@H](CO)NC(=O)[C@H](Cc1ccc(O)cc1)NC(=O)CNC(=O)[C@H](CCC(N)=O)NC(=O)[C@@H](N)CCCNC(=N)N)NC(=O)[C@H](CC(C)C)NC(=O)[C@@H]1CCCN1C(=O)[C@H](CO)NC(=O)[C@H](Cc1ccc(O)cc1)NC(=O)CNC(=O)[C@H](CCC(N)=O)NC(=O)[C@@H](N)CCCNC(=N)N)NC(=O)[C@H](CCCCNC(=O)[C@H](CC(C)C)NC(=O)[C@@H]1CCCN1C(=O)[C@H](CO)NC(=O)[C@H](Cc1ccc(O)cc1)NC(=O)CNC(=O)[C@H](CCC(N)=O)NC(=O)[C@@H](N)CCCNC(=N)N)NC(=O)[C@H](CC(C)C)NC(=O)[C@@H]1CCCN1C(=O)[C@H](CO)NC(=O)[C@H](Cc1ccc(O)cc1)NC(=O)CNC(=O)[C@H](CCC(N)=O)NC(=O)[C@@H](N)CCCNC(=N)N)C(=O)NCCC(=O)O [RL, (RQGYSPL)8-K4-K2-K-βA-OH, reference compound]
[1]
  IC50: 6 nM
  IC100: 0.05 µM
HIV-1 NL 4-3 [2]
  IC50: 10 nM
HIV-1 NL 4-3 [3]; PBL, NL 4-3 strain, Table 4
  IC50: 5 nM
  IC100: 0.1 µM

## C[C@H](NC(=O)[C@H](CCCNC(=N)N)NC(=O)CNC(=O)[C@@H]1CCCN1C(=O)CN)C(=O)N[C@@H](Cc1ccccc1)C(=O)NCCCC[C@H](NC(=O)[C@H](Cc1ccccc1)NC(=O)[C@H](C)NC(=O)[C@H](CCCNC(=N)N)NC(=O)CNC(=O)[C@@H]1CCCN1C(=O)CN)C(=O)NCCCCC(=O)O [SPC3 dimer valeric acid, (GPGRAF)2-K—NHCH2CH2CH2CH2COOH] (I: H-GPGRAFK[Ava]-OH / II: H-GPGRAF; amide I:7-II:C; N-terminus assumed)
[1]
  IC50: 8 nM
  IC100: 0.5 µM
HIV-1 NL 4-3 [2]
  IC50: 50 nM

## SPC3-Tat [S3]
HIV-1 NL 4-3 [4]; 0.05 μM
  Day 4 syncitia formed: (+)
  Day 5 syncitia formed: +
  Day 6 syncitia formed: ++
  Day 7 syncitia formed: ++
HIV-1 NL 4-3 [4]; 0.1 μM
  Day 4 syncitia formed: (+)
  Day 5 syncitia formed: − and +
  Day 6 syncitia formed: +
  Day 7 syncitia formed: ++
HIV-1 NL 4-3 [4]; 0.5 μM
  Day 4 syncitia formed: −
  Day 5 syncitia formed: −
  Day 6 syncitia formed: −
  Day 7 syncitia formed: (+) and +
HIV-1 NL 4-3 [4]; 1 μM
  Day 4 syncitia formed: −
  Day 5 syncitia formed: −
  Day 6 syncitia formed: −
  Day 7 syncitia formed: −
HIV-1 NL 4-3 [5]; 0.5 μM
  Day 4 syncitia formed: −
  Day 5 syncitia formed: −
  Day 6 syncitia formed: −
  Day 7 syncitia formed: + and (+)
HIV-1 NL 4-3 [5]; 1 μM
  Day 4 syncitia formed: −
  Day 5 syncitia formed: −
  Day 6 syncitia formed: −
  Day 7 syncitia formed: − and +
HIV-1 NL 4-3 [5]; 2 μM
  Day 4 syncitia formed: −
  Day 5 syncitia formed: −
  Day 6 syncitia formed: −
  Day 7 syncitia formed: −
HIV-1 NL 4-3 [5]; 5 μM
  Day 4 syncitia formed: −
  Day 5 syncitia formed: −
  Day 6 syncitia formed: −
  Day 7 syncitia formed: −
HIV-1 NL 4-3 [2]; Day 4, 0.1 μM, Table 2
  P 24: 61 pg/mL and 33 pg/mL
HIV-1 NL 4-3 [2]; Day 4, 2 μM, Table 1
  P 24: NEG
HIV-1 NL 4-3 [2]; Day 4, 5 μM, Table 1
  P 24: NEG
HIV-1 NL 4-3 [2]; Day 7, 0.05 μM, Table 2
  P 24: 3664 pg/mL and 2064 pg/mL
HIV-1 NL 4-3 [2]; Day 7, 0.1 μM, Table 2
  P 24: 787 pg/mL and 496 pg/mL
HIV-1 NL 4-3 [3]; on PBL
  IC100: 0.1 µM
